From patent publication US12642857B2, “Degradation of AKT by conjugation of ATP-competitive AKT inhibitor GDC-0068 with E3 ligase ligands and methods of use” (DANA-FARBER CANCER INSTITUTE, INC., priority 2019, dated 2026)

Tests used:
phosphorylated PRAS40 [1] = experiment: Immunoblot of phosphorylated PRAS40 in MDA-MB-468 cells; assay type: cell-based, human; conditions: 24-hour treatment
Method: (§1) MDA-MB-468 (human breast cancer cell line) cells were maintained in RPMI 1640 (Wisent Bioproducts) supplemented with 10% FBS (Thermo Fisher Scientific) and MCF10A (human breast epithelial cell line) cells were maintained in Dulbecco's modified Eagle's medium (DMEM)/Ham's F12 (Wisent Bioproducts) supplemented with 5% equine serum (Fisher), insulin (10 μg/ml) (Life Technologies), hydrocortisone (500 ng/ml) (Sigma-Aldrich®), epidermal growth factor (20 ng/ml) (R&D Systems), and cholera toxin (100 ng/ml) (List Biological Lab). MDA-MB-468 and MCF10A cells were seeded at 250,000 cells/mL and 200,000 cells/mL, respectively. The following day cells were treated with inventive bifunctional compounds. After 24 hours, cells were washed with phosphate-buffered saline at 4° C. and lysed in radioimmunoprecipitation assay (RIPA) buffer (150 mM Tris-HCl, 150 mM NaCl, 0.5% (w/v) sodium deoxycholate, 1% (v/v) NP-40, pH 7.5) containing 0.1% (w/v) sodium dodecyl sulfate, 1 mM sodium pyrophosphate, 20 mM sodium fluoride, 50 nM calyculin, and 0.5% (v/v) protease inhibitor cocktail (Sigma-Aldrich®)). Cell extracts were precleared by centrifugation at 14,000 rpm for 10 minutes at 4° C. The Bio-Rad DC protein assay was used to assess protein concentration, and sample concentration was normalized using SDS sample buffer. […] Images were stored and analyzed using ImageStudioTM (LI-COR®) software.

phosphorylated PRAS40 [2] = experiment: Immunoblot of phosphorylated PRAS40 in MCF10A cells; assay type: cell-based, human; conditions: 24-hour treatment
Method: as §1, with “software. […]” for “software.”

[3] = test system: phospho-PRAS40 (T246), phospho-GSK3I3 (S9), phospho-S6 (S240/244); experiment: Immunoblot of downstream signaling (pPRAS40, pGSK3, pS6) in T47D and MDA-MB-468 cells; assay type: cell-based, human
Method: Solid vertical white line indicates samples run on separate gels. […] Solid vertical white line indicates samples run on separate gels. Cells were plated at 250,000 cells per mL (MDA-MB-468, MOLT4, IGROV1, PC3, and Jurkat) or 200,000 cells per mL (T47D) in 2 mL per well of RPMI or DMEM media with 10% serum in 6-well treated tissue culture plates (Greiner, Cat #TCG-657160) or 60 mm treated tissue culture plates (Corning®, Cat #430166) and incubated overnight. The next day, cells were treated with the indicated compounds at the appropriate concentration and protein lysates were harvested at the times specified. Cells were washed once in 1×PBS then lysed in RIPA buffer (150 mM Tris-HCl, 150 mM NaCl, 0.5% (w/v) sodium deoxycholate, 1% (v/v) NP-40, pH 7.5) containing 0.1% (w/v) sodium dodecyl sulfate, 1 mM sodium pyrophosphate, 20 mM sodium fluoride, 50 nM calyculin, and 0.5% (v/v) protease inhibitor cocktail (Sigma-Aldrich®) for 15 minutes. Cell extracts were precleared by centrifugation at 14,000 rpm for 10 minutes at 4° C. The Bio-Rad DC protein assay was used to assess protein concentration, and sample concentration was normalized using SDS sample buffer. Lysates were resolved on acrylamide gels by SDS-polyacrylamide gel electrophoresis and electrophoretically transferred to nitrocellulose membrane (BioRad) at 100 volts for 90 minutes. Membranes were blocked in 5% (w/v) nonfat dry milk in tris-buffered saline (TBS) buffer for 1 hour then incubated with specific primary antibodies diluted in 5% (w/v) nonfat dry milk in TBS-T (TBS with 0.05% Tween®-20) at 4° C. overnight, shaking. The next day, membranes were washed with TBS-T then incubated for 1 hour at room temperature with fluorophore-conjugated secondary antibodies (LI-COR® Biosciences). The membrane was washed again with TBS-T then imaged with a LI-COR® Odyssey® CLx Imaging System (LI-COR® Biosciences).

ZR-75-1 cells = experiment: Growth inhibition rate (GR) assay in ZR-75-1 cells; assay type: cell-based; conditions: 72-hour treatment (FIG. 6A)
From the text: (§2) FIG. 6A-FIG. 6F are a set of graphs that show growth inhibition rate (GR) values across concentrations in ZR-75-1 (FIG. 6A), T47D (FIG. 6B), LNCaP (FIG. 6C), MCF-7 (FIG. 6D), MDA-MB-468 (FIG. 6E), and HCC1937 (FIG. 6F) cells after 72-hour treatment with GDC-0068 (blue), inventive bifunctional compound 10 (red), bifunctional compound 10-Me (negative control) (green), and lenalidomide (orange). Error bars represent the standard deviation of three technical replicates.

[4] = test system: ZR-75-1, T47D, LNCaP, MCF-7 cells; experiment: Growth inhibition rate (GR) assay in cell lines sensitive to AKT inhibition; assay type: cell-based; conditions: MCF-7, 72-hour treatment (FIG. 6A-6D)
From the text: as §2

[5] = T47D and MDA-MB-468 cells, 250 nM (FIG. 7C-7D)

In the case of CC(C)NC[C@@H](C(=O)N1CCN(c2ncnc3c2[C@H](C)C[C@H]3O)CC1)c1ccc(Cl)cc1 [GDC-0068], the “Phosphorylated PRAS40 signal” value (phosphorylated PRAS40 [1]) is reported as “reduction of phosphorylated proline-rich AKT substrate of 40 kDa (PRAS40) signal”, the “Phosphorylated PRAS40 signal” value (phosphorylated PRAS40 [2]) is reported as “reduction of phosphorylated PRAS40 signal” and the “Duration of reduction of pPRAS40 levels” value [3, 5] is reported as “shorter”. The “Inhibition of pPRAS40 compared with compound 10” value [3, 5] was “less-pronounced inhibition of pPRAS40”, the “Phosphorylation of PRAS40, GSK3I3 and S6” value ([3]; T47D and MDA-MB-468 cells, 250 nM, 24 hours (FIG. 7A-7B)) was “weaker responses” and the “pPRAS40 levels after compound washout” value ([3]; T47D or MDA-MB-468 cells, 12 h treatment at 250 nM, then washout (FIG. 7E-7F)) was “rebound of pPRAS40”. For the same molecule, the GR50 (ZR-75-1 cells) was “comparable GR50 value”.
For Nc1cccc2c1CN(C1CCC(=O)NC1=O)C2=O (centres unmarked) [lenalidomide], the Anti-proliferative effects [4] was “did not have strong anti-proliferative effects”.
